# Key:
# [1] = target: PI3-kinase p110-delta/p85-alpha (Homo sapiens, UniProt O00329); assay: Inhibition of recombinant human full-length N-terminal GST-tagged p110delta/untagged full-length p85alpha expressed in baculovirus infected Sf21 cells using PIP2 as substrate preincubated for 15 mins followed by substrate addition and measured after 1 hr by HTRF assay
# [2] = Protein binding in rat plasma at 0.5 mg/kg, iv or 1 mg/kg, po; format: ADME, organism-based; details: read-out: PPB (converted)
# [3] = Protein binding in dog plasma at 0.5 mg/kg, iv or 1 mg/kg, po; format: ADME, organism-based, Canis lupus familiaris; details: read-out: PPB (converted)
# [4] = target: Tyrosine-protein kinase receptor UFO (Homo sapiens, UniProt P30530); assay: Inhibition of recombinant full length human GST-tagged AXL expressed in insect expression system using tyrosine-6 peptide as substrate incubated for 60 mins in presence of ATP by Z'-LYTE assay
# [5] = target: G protein-coupled receptor kinase 3 (Homo sapiens, UniProt P35626); assay: Inhibition of recombinant full length human GST-tagged GRK3 expressed in baculovirus expression system using serine/threonine-16 peptide as substrate incubated for 60 mins in presence of ATP by Z'-LYTE assay
# Aurora kinase A = Aurora kinase A (Homo sapiens, UniProt O14965); assay: Inhibition of recombinant human full length AURKA expressed in baculovirus expression system using Ser/Thr-01 peptide as substrate after 1 hr in presence of ATP by Z'LYTE assay
# Cavia porcellus = species: Cavia porcellus; assay: Displacement of [3H]nitrobenzylthioinosine from adenosine transporter in guinea pig cerebral cortical membranes at 10 uM after 30 mins by radiometric scintillation analysis relative to control
# [6] = target: Somatostatin receptor type 2 (Homo sapiens) (UniProt P30874); assay: Displacement of [125I]Tyr11-Somatostatin 14 from recombinant full length human SST2 expressed in CHO-K1 cells at 10 uM after 4 hrs by radiometric scintillation analysis relative to control; format: cell-based
# [7] = target: Neurotensin receptor type 1 (Homo sapiens) (UniProt P30989); assay: Displacement of [125I]neurotensin from NT1 receptor in human HEK293 EBNA cell membranes at 10 uM measured after 45 mins by radiometric scintillation analysis relative to control
# [8] = target: Muscarinic acetylcholine receptor M5 (Homo sapiens) (UniProt P08912); assay: Displacement of [3H]N-Methylscopolamine from full length human recombinant Muscarinic M5 receptor expressed in CHOK1 cells at 10 uM measured after 120 mins by radiometric scintillation analysis relative to control; format: cell-based; details: CHO-K1
# [9] = target: Histamine H1 receptor (Homo sapiens) (UniProt P35367); assay: Displacement of [3H]pyrilamine from full length human recombinant histamine H1 receptor expressed in CHO-K1 cells at 10 uM measured after 180 mins by radiometric scintillation analysis relative to control; format: cell-based
# [10] = target: Glutamate receptor ionotropic, AMPA (Rattus norvegicus) (UniProt P19491+P19492+P19493+P19490); assay: Displacement of [3H]AMPA from glutamate AMPA receptor in Wistar rat cerebral cortical membranes at 10 uM incubated for 90 mins by radiometric scintillation analysis relative to control
# [11] = target: Alpha-1D adrenergic receptor (Homo sapiens) (UniProt P25100); assay: Displacement of [3H]prazosin from recombinant full length human alpha1d adrenergic receptor expressed in HEK293 cell membranes at 10 uM measured after 60 mins by scintillation counting method relative to control
# [12] = target: Mitogen-activated protein kinase 3 (Homo sapiens, UniProt P27361); assay: Inhibition of recombinant full-length human ERK1 expressed in Escherichia coli at 10 uM using MBP as substrate after 30 mins by radiometric scintillation analysis relative to control
# CDK7/Cyclin H/MNAT1 = CDK7/Cyclin H/MNAT1 (Homo sapiens, UniProt P50613); assay: Inhibition of recombinant full length human His-tagged CDK7/CyclinH/MAT1 expressed in baculovirus expression system using CDK7/9tide peptide as substrate incubated for 60 mins in presence of ATP by Adapta assay
# [13] = target: Dual specificity protein kinase CLK3 (Homo sapiens, UniProt P49761); assay: Inhibition of recombinant full length human GST-tagged CLK3 expressed in baculovirus expression system using serine/threonine-18 peptide as substrate incubated for 60 mins in presence of ATP by Z'-LYTE assay
# [14] = target: Macrophage colony-stimulating factor 1 receptor (Homo sapiens, UniProt P07333); assay: Inhibition of recombinant human His-tagged CSF1R catalytic domain (538 to 910 residues) expressed in baculovirus expression system using tyrosine-1 peptide as substrate incubated for 60 mins in presence of ATP by Z'-LYTE assay
# [15] = target: Fibroblast growth factor receptor 4 (Homo sapiens, UniProt P22455); assay: Inhibition of recombinant human His-tagged FGFR4 catalytic domain ([…]) expressed in baculovirus expression system using tyrosine-4 peptide as substrate incubated for 60 mins in presence of ATP by Z'-LYTE assay
# [16] = target: G protein-coupled receptor kinase 5 (Homo sapiens, UniProt P34947); assay: Inhibition of recombinant full length human GST-tagged GRK5 expressed in baculovirus expression system using serine/threonine-16 peptide as substrate incubated for 60 mins in presence of ATP by Z'-LYTE assay
# [17] = target: Serine/threonine-protein kinase haspin (Homo sapiens, UniProt Q8TF76); assay: Inhibition of recombinant N-terminal GST tagged human GSG2 catalytic domain (471 to 798 residues) expressed in baculovirus expression system using Histone H3 (1-20) peptide as substrate after 1 hr in presence of ATP by ADAPTA assay
# [18] = target: Insulin receptor-related protein (Homo sapiens, UniProt P14616); assay: Inhibition of recombinant human GST-tagged INSRR cytoplasmic domain expressed in baculovirus expression system using tyrosine-1 peptide as substrate incubated for 60 mins in presence of ATP by Z'-LYTE assay
# [19] = target: Proto-oncogene tyrosine-protein kinase receptor Ret (Homo sapiens, UniProt P07949, Y791F); assay: Inhibition of recombinant human GST-tagged RET Y791F mutant cytoplasmic domain expressed in baculovirus expression system using tyr02 peptide as substrate incubated for 60 mins in presence of ATP by Z'-LYTE assay
# [20] = target: Ribosomal protein S6 kinase alpha-1 (Homo sapiens, UniProt Q15418); assay: Inhibition of recombinant full length human His-tagged RPS6KA1 expressed in baculovirus expression system using […] peptide as substrate incubated for 60 mins in presence of ATP by Z'-LYTE assay
# [21] = target: Testis-specific serine/threonine-protein kinase 1 (Homo sapiens, UniProt Q9BXA7); assay: Inhibition of recombinant full length human His-tagged TSSK1 expressed in baculovirus expression system using serine/threonine-4 peptide as substrate incubated for 60 mins in presence of ATP by Z'-LYTE assay
# [22] = target: Tyrosine-protein kinase receptor TYRO3 (Homo sapiens, UniProt Q06418); assay: Inhibition of recombinant human GST-tagged RSE catalytic domain (451 to 890 residues) expressed in baculovirus expression system using tyrosine-2 peptide as substrate incubated for 60 mins in presence of ATP by Z'-LYTE assay
# Tyrosine-protein kinase receptor UFO, sequence (P30530 whole entry): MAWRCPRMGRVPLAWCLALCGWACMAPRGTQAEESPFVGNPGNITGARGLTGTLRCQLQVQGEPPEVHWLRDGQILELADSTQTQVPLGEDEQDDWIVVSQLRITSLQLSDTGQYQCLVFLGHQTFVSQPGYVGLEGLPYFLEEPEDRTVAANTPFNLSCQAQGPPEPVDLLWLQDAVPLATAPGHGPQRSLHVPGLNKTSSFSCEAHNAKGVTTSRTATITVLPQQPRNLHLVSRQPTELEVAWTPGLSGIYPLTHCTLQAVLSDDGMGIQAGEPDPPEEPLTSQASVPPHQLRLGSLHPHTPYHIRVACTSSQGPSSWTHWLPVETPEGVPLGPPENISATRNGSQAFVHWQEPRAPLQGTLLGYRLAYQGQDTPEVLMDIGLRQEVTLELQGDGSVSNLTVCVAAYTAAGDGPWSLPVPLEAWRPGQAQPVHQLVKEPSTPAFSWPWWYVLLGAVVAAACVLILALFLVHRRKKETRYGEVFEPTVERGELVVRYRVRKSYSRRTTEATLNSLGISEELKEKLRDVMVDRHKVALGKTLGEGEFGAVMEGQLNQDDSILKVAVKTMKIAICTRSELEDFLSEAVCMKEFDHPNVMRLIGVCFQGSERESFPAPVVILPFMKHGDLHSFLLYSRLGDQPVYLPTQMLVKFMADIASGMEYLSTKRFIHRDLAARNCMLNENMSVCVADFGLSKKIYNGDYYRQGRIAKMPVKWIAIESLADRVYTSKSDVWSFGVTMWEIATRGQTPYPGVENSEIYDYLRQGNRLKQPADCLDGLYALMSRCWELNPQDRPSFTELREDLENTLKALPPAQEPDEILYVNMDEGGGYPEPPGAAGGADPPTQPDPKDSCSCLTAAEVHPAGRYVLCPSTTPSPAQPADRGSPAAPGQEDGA
# Histamine H1 receptor (Homo sapiens), sequence (P35367 whole entry): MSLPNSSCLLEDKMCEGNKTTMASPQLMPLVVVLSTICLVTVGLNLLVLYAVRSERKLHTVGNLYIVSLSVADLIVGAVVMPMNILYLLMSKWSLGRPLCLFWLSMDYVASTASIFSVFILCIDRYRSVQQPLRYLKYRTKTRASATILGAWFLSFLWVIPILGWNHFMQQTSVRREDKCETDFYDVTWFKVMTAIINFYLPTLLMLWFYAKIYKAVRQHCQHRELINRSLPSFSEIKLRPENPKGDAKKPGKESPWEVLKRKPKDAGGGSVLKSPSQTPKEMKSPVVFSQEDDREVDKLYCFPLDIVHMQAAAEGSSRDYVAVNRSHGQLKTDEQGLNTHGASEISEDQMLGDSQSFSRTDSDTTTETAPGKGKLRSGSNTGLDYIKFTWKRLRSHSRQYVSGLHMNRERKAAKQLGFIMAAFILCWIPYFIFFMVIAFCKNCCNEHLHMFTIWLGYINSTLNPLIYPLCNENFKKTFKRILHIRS
# Neurotensin receptor type 1 (Homo sapiens), sequence (P30989 whole entry): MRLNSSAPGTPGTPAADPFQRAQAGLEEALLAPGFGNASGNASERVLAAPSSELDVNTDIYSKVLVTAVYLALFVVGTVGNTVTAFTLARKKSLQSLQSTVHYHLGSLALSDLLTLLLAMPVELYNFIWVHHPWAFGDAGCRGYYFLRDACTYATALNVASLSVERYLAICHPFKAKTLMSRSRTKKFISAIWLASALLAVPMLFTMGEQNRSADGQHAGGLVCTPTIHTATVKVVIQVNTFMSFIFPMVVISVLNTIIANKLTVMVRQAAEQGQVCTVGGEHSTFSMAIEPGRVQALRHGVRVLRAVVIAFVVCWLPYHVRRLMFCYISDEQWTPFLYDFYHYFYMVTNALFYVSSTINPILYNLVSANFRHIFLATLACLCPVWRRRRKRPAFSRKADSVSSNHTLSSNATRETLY
# CDK7/Cyclin H/MNAT1, sequence (P51946 whole entry): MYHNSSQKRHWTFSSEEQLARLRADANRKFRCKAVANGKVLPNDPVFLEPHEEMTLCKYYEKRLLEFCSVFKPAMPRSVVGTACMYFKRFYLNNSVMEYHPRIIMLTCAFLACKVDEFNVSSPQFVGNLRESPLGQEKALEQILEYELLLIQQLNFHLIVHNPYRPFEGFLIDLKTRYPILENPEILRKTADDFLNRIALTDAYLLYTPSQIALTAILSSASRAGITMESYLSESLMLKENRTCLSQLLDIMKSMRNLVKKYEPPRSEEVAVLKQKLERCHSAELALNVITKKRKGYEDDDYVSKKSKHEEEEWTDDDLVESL
# CDK7/Cyclin H/MNAT1, sequence (P50613 whole entry): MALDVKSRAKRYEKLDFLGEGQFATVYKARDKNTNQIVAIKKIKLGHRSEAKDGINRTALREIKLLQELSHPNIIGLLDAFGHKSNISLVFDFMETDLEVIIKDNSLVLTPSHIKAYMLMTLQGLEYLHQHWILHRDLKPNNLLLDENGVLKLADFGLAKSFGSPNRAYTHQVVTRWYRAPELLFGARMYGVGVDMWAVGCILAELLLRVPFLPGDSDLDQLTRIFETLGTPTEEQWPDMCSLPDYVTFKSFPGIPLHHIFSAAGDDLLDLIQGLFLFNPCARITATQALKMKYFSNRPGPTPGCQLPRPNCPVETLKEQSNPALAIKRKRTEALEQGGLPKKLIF
# CDK7/Cyclin H/MNAT1, sequence (P51948 whole entry, further chain): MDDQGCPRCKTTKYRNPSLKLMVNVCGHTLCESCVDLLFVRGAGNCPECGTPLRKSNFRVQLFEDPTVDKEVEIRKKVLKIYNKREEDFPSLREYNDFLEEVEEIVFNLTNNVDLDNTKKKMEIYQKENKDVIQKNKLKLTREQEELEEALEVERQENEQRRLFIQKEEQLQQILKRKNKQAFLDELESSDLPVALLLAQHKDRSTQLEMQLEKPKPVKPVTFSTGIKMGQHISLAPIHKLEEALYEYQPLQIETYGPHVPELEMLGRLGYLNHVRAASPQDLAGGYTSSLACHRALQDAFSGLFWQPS
# PI3-kinase p110-delta/p85-alpha, sequence (P27986 whole entry): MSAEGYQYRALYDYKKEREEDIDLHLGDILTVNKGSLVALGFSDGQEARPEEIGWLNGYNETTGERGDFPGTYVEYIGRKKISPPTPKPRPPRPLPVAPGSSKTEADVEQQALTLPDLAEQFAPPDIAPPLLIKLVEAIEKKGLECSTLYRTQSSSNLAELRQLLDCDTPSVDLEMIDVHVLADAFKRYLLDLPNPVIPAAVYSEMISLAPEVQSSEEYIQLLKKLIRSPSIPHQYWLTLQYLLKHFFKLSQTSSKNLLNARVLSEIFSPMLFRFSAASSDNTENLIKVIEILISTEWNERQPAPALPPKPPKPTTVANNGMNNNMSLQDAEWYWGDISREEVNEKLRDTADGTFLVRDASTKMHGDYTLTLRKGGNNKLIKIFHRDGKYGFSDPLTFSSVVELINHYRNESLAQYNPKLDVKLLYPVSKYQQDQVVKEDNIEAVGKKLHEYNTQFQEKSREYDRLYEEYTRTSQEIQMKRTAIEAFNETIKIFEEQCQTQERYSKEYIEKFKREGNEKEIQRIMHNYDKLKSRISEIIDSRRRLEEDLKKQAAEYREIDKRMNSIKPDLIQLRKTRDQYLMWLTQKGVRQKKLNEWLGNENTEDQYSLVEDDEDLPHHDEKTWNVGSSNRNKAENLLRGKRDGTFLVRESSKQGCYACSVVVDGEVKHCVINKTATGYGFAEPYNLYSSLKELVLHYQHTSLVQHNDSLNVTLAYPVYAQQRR
# PI3-kinase p110-delta/p85-alpha, sequence (O00329 whole entry): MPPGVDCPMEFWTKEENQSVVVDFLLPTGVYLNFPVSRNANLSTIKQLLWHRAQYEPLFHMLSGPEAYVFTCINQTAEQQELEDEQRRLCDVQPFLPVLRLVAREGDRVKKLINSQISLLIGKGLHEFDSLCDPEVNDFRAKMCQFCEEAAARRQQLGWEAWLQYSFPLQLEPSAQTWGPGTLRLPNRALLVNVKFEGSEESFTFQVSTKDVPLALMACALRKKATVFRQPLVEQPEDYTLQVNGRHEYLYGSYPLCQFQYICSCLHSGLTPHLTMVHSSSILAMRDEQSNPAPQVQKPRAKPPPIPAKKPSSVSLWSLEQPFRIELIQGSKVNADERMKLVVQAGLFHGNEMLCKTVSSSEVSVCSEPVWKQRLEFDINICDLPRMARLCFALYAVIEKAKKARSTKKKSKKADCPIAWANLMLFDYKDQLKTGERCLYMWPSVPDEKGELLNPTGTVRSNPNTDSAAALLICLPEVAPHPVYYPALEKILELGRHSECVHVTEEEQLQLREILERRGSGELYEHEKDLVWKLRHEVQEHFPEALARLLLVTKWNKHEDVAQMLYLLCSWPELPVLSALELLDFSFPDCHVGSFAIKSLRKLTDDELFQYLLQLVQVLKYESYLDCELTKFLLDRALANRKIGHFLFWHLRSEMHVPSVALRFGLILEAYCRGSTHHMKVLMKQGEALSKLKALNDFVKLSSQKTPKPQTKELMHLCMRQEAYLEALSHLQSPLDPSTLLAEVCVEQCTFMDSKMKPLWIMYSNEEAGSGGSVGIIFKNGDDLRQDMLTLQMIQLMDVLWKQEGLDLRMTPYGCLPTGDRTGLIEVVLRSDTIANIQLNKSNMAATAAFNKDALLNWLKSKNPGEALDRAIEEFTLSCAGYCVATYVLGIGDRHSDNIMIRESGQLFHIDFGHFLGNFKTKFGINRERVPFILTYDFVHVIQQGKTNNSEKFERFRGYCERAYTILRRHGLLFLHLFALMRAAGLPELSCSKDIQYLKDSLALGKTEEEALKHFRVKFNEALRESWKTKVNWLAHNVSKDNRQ
# Aurora kinase A, sequence (O14965 whole entry): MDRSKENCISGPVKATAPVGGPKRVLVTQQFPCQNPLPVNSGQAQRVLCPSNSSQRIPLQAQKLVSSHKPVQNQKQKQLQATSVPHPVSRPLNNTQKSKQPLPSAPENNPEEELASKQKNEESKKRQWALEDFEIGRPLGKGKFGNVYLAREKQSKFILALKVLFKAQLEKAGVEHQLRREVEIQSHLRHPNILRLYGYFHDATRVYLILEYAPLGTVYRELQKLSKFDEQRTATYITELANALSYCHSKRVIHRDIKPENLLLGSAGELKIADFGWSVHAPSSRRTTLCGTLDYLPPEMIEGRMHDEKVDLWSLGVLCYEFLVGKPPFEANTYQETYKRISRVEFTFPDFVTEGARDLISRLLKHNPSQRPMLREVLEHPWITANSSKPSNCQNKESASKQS
compound,measurement,setting,value
C[C@@H]1C[C@H]1C(=O)N1CCN(c2cnc(C#N)c(-c3cnn(C)c3)n2)C[C@H]1C,IC50,[1],0.009 µM
same,fraction unbound,[2],0.152
same,fraction unbound,[3],0.213
same,IC50,[4],> 100 µM
same,IC50,[5],> 100 µM
same,IC50,Aurora kinase A,16 µM
same,inhibition,Cavia porcellus,41%
same,inhibition,[6],-5%
same,inhibition,[7],1%
same,inhibition,[8],1%
same,inhibition,[9],12%
same,inhibition,[10],7%
same,inhibition,[11],5%
same,inhibition,[12],18%
same,IC50,CDK7/Cyclin H/MNAT1,> 100 µM
same,IC50,[13],> 100 µM
same,IC50,[14],> 100 µM
same,IC50,[15],> 100 µM
same,IC50,[16],> 100 µM
same,IC50,[17],> 100 µM
same,IC50,[18],> 100 µM
same,IC50,[19],> 100 µM
same,IC50,[20],> 100 µM
same,IC50,[21],> 100 µM
same,IC50,[22],> 100 µM
